Results as given in ChEMBL document CHEMBL3351769, “Poly-guanidinoethylphenylethers organised around a benzene ring: synthesis and evaluation of their antibacterial and cytotoxic properties” (Bioorg Med Chem Lett, 2014).

Key:
Escherichia coli = experiment: Antimicrobial activity against Escherichia coli ATCC 25922 by broth microdilution method; assay type: functional
Pseudomonas aeruginosa = experiment: Antimicrobial activity against Pseudomonas aeruginosa ATCC 27853 by broth microdilution method; assay type: functional
Staphylococcus aureus [1] = experiment: Antimicrobial activity against Staphylococcus aureus ATCC 25923 by broth microdilution method; assay type: functional
Staphylococcus aureus [2] = experiment: Antimicrobial activity against Staphylococcus aureus ATCC 29213 by broth microdilution method; assay type: functional
Enterococcus faecalis = experiment: Antimicrobial activity against Enterococcus faecalis ATCC 29212 by broth microdilution method; assay type: functional
MRC5 [3] = experiment: Cytotoxicity against human MRC5 cells after 24 hrs by MTT assay; assay type: cell-based; details: MRC5, 24 h
MRC5 [4] = experiment: Cytotoxicity against human MRC5 cells after 48 hrs by MTT assay; assay type: cell-based; details: MRC5, 48 h
[5] = Selectivity index, ratio of IC50 for human MRC5 cells after 24 hrs to MIC for Escherichia coli ATCC 25922; assay type: toxicity, cell-based; details: read-out: Selectivity Index
[6] = Selectivity index, ratio of IC50 for human MRC5 cells after 24 hrs to MIC for Pseudomonas aeruginosa ATCC 27853; assay type: toxicity, cell-based; details: read-out: Selectivity Index
[7] = Selectivity index, ratio of IC50 for human MRC5 cells after 24 hrs to MIC for Staphylococcus aureus ATCC 25923; assay type: toxicity, cell-based; details: read-out: Selectivity Index
[8] = Selectivity index, ratio of IC50 for human MRC5 cells after 24 hrs to MIC for Staphylococcus aureus ATCC 29213; assay type: toxicity, cell-based; details: read-out: Selectivity Index
[9] = Selectivity index, ratio of IC50 for human MRC5 cells after 24 hrs to MIC for Enterococcus faecalis ATCC 29212; assay type: toxicity, cell-based; details: read-out: Selectivity Index

Structure (SMILES) | MIC (Escherichia coli) [µg/mL] | MIC (Pseudomonas aeruginosa) [µg/mL] | MIC (Staphylococcus aureus [1]) [µg/mL] | MIC (Staphylococcus aureus [2]) [µg/mL] | MIC (Enterococcus faecalis) [µg/mL] | IC50 (MRC5 [3]) [µg/mL] | IC50 (MRC5 [4]) [µg/mL] | selectivity ratio at 24 h [5] | selectivity ratio at 24 h [6] | selectivity ratio at 24 h [7] | selectivity ratio at 24 h [8] | selectivity ratio at 24 h [9]
N=C(N)NCCc1ccc(OCc2ccccc2)cc1.O=C(O)C(F)(F)F | 32 | 64 | 16 | 8 | 128 | 26 | 19 | 0.8 | 0.4 | 1.5 | 3 | 0.2
N=C(N)NCCc1ccc(OCc2ccccc2COc2ccc(CCNC(=N)N)cc2)cc1.O=C(O)C(F)(F)F | 8 | 16 | < 1 | < 1 | 8 | 100 | 41 | 12.5 | 6.2 | > 100 | > 100 | 12.5
N=C(N)NCCc1ccc(OCc2cccc(COc3ccc(CCNC(=N)N)cc3)c2)cc1.O=C(O)C(F)(F)F | 16 | 32 | < 1 | 2 | 16 | 34.5 | 29.7 | 2 | 1 | > 34.5 | 17 | 2
N=C(N)NCCc1ccc(OCc2ccc(COc3ccc(CCNC(=N)N)cc3)cc2)cc1.O=C(O)C(F)(F)F | 4 | 4 | 1 | 1 | 2 | 21 | 12.7 | 5.25 | 5.25 | 21 | 21 | 10.5
N=C(N)NCCc1ccc(OCc2cc(COc3ccc(CCNC(=N)N)cc3)cc(COc3ccc(CCNC(=N)N)cc3)c2)cc1.O=C(O)C(F)(F)F | < 1 | 16 | < 1 | < 1 | 8 | 39.5 | 30 | > 39.5 | 2.5 | > 39.5 | > 39.5 | 5
N=C(N)NCCc1ccc(OCc2cc(COc3ccc(CCNC(=N)N)cc3)c(COc3ccc(CCNC(=N)N)cc3)cc2COc2ccc(CCNC(=N)N)cc2)cc1.O=C(O)C(F)(F)F | 4 | 8 | 2 | < 1 | 4 | 49 | 38.5 | 12 | 6 | 24.5 | > 49 | 12.2
N=C(N)NCCc1ccc(OCc2c(COc3ccc(CCNC(=N)N)cc3)c(COc3ccc(CCNC(=N)N)cc3)c(COc3ccc(CCNC(=N)N)cc3)c(COc3ccc(CCNC(=N)N)cc3)c2COc2ccc(CCNC(=N)N)cc2)cc1.O=C(O)C(F)(F)F | 16 | 16 | 8 | 8 | 8 | 26 | 30 | 1.5 | 1.5 | 3 | 3 | 3
